Measurements taken from patent US20120122148A1, “Media For The Specific Detection Of Gram-Negative Bacteria Resistant To Beta-Lactam Antibiotics” (bioMerieux, SA, priority 2009, published 2012).

Legend:
Format in all cases: cell-based
[1] = tested on: Enterobacter spp 0503037 (Wild-type); assay: Growth and enzymatic activity on ChromID CPS-based selective media; conditions: cefpodoxime 4 mg/l (T), cefepime 0.25 mg/l (A), cefamandole 3 mg/l (B), cefuroxime 3 mg/l (C), each with 300 mg/l cloxacillin
Excerpt: (§1) Choice of strains: The inventors selected strains which make it possible to evaluate the activity of antibiotics with respect to Gram-negative species: enterobacteria and nonfermenting bacilli. In particular, ESBL-producing strains, high-level cephalosporinase-producing strains (HL Case) and strains without a particular resistance profile, termed wild-type strains, were used.
(§2) Preparation of media: The media tested were media composed of the peptone base of the ChromID CPS medium (bioMérieux ref 43541) to which were added, after autoclaving, in molten media, 300 mg/l cloxacillin and, for medium T: 4 mg/l cefpodoxime, for medium A: 0.25 mg/L of cefepime, for medium B: 3 mg/l of cefamandole and for medium C: 3 mg/l of cefuroxime.
(§3) Inoculation of media: The media are inoculated by carrying out a 3-quadrant streaking method using bacterial suspensions at 0.5 McF. The media are then incubated for 24 hours at 37° C.
(§4) Reading of media: The media are observed visually after 18 h and 24 hours of incubation, the growth density and also the colorations and coloration strengths are evaluated according to the scale below: • − or 0: absence of growth or of expression of enzymatic acitivity (i.e. no coloration) • +: weak growth, or enzymatic activity • ++: very strong growth density or strong enzymatic acitivity (very strong coloration)

[2] = tested on: Klebsiella oxytoca 0105100 (HL case); assay: as above; conditions: cefpodoxime 4 mg/l (T), cefepime 0.25 mg/l (A), cefamandole 3 mg/l (B), cefuroxime 3 mg/l (C), each with 300 mg/l cloxacillin
Excerpt: as §1, §2, §3, §4

[3] = tested on: Morganella morganii 9904104 (HL case); assay: as above; conditions: cefpodoxime 4 mg/l (T), cefepime 0.25 mg/l (A), cefamandole 3 mg/l (B), cefuroxime 3 mg/l (C), each with 300 mg/l cloxacillin
Excerpt: as §1, §2, §3, §4

[4] = tested on: Proteus mirabilis 0105105 (HL case); assay: as above; conditions: cefpodoxime 4 mg/l (T), cefepime 0.25 mg/l (A), cefamandole 3 mg/l (B), cefuroxime 3 mg/l (C), each with 300 mg/l cloxacillin
Excerpt: as §1, §2, §3, §4

[5] = tested on: Proteus mirabilis 0105109 (HL case); assay: as above; conditions: cefpodoxime 4 mg/l (T), cefepime 0.25 mg/l (A), cefamandole 3 mg/l (B), cefuroxime 3 mg/l (C), each with 300 mg/l cloxacillin
Excerpt: as §1, §2, §3, §4

[6] = tested on: Proteus mirabilis 9709068 (ESBL); assay: as above; conditions: cefpodoxime 4 mg/l (T), cefepime 0.25 mg/l (A), cefamandole 3 mg/l (B), cefuroxime 3 mg/l (C), each with 300 mg/l cloxacillin
Excerpt: as §1, §2, §3, §4

[7] = tested on: Serratia fonticola 8001047 (Wild-type); assay: as above; conditions: cefpodoxime 4 mg/l (T), cefepime 0.25 mg/l (A), cefamandole 3 mg/l (B), cefuroxime 3 mg/l (C), each with 300 mg/l cloxacillin
Excerpt: as §1, §2, §3, §4

[8] = tested on: Enterobacter aerogenes 0502112 (ESBL); assay: as above; set-up: key to the marks not given beside the values; conditions: cefpodoxime 4 mg/l (T), cefepime 0.25 mg/l (A), cefamandole 3 mg/l (B), cefuroxime 3 mg/l (C), each with 300 mg/l cloxacillin
Excerpt: as §1, §2, §3, §4

[9] = tested on: Enterobacter spp 9306069 (HL case); assay: as above; set-up: key to the marks not given beside the values; conditions: cefpodoxime 4 mg/l (T), cefepime 0.25 mg/l (A), cefamandole 3 mg/l (B), cefuroxime 3 mg/l (C), each with 300 mg/l cloxacillin
Excerpt: as §1, §2, §3, §4

[10] = tested on: Escherichia coli 0411146 (ESBL); assay: as above; set-up: key to the marks not given beside the values; conditions: cefpodoxime 4 mg/l (T), cefepime 0.25 mg/l (A), cefamandole 3 mg/l (B), cefuroxime 3 mg/l (C), each with 300 mg/l cloxacillin
Excerpt: as §1, §2, §3, §4

[11] = tested on: Klebsiella oxytoca 0502094 (ESBL); assay: as above; set-up: key to the marks not given beside the values; conditions: cefpodoxime 4 mg/l (T), cefepime 0.25 mg/l (A), cefamandole 3 mg/l (B), cefuroxime 3 mg/l (C), each with 300 mg/l cloxacillin
Excerpt: as §1, §2, §3, §4

[12] = tested on: Escherichia coli 0505101 (ESBL); assay: as above; set-up: Enz act.: key to the marks not given beside the values; conditions: cefpodoxime 4 mg/l (T), cefepime 0.25 mg/l (A), cefamandole 3 mg/l (B), cefuroxime 3 mg/l (C), each with 300 mg/l cloxacillin
Excerpt: as §1, §2, §3, §4

[13] = tested on: ESBL-producing strains, strains producing an HL Case, wild-type taxon strains; assay: Overall conclusion on the selective media over the strain panel
Excerpt: as §1, §2, §3, §4

## Cn1nnnc1SCC1=C(C(=O)O)N2C(=O)[C@@H](NC(=O)[C@H](O)c3ccccc3)[C@H]2SC1 [Cefamandole, cefamandole]
[1]; 18 h at 37° C.
  Enz act.: ++
  Growth: ++
[1]; 24 h at 37° C.
  Enz act.: ++
  Growth: ++
[2]; 18 h at 37° C.
  Enz act.: +
  Growth: +
[2]; 24 h at 37° C.
  Enz act.: ++
  Growth: +
[3]; 18 h at 37° C.
  Enz act.: −
  Growth: −
[3]; 24 h at 37° C.
  Enz act.: −
  Growth: −
[4]; 18 h at 37° C.
  Enz act.: −
  Growth: −
[4]; 24 h at 37° C.
  Enz act.: −
  Growth: −
[5]; 18 h at 37° C.
  Enz act.: −
  Growth: −
[5]; 24 h at 37° C.
  Enz act.: −
  Growth: −
[6]; 18 h at 37° C.
  Enz act.: −
  Growth: +
[6]; 24 h at 37° C.
  Enz act.: +
  Growth: +
[7]; 18 h at 37° C.
  Enz act.: +
  Growth: +
[7]; 24 h at 37° C.
  Enz act.: ++
  Growth: +
[8]; 18 h at 37° C.
  Enz act.: ++
  Growth: ++
[8]; 24 h at 37° C.
  Enz act.: ++
  Growth: ++
[9]; 18 h at 37° C.
  Enz act.: ++
  Growth: ++
[9]; 24 h at 37° C.
  Enz act.: ++
  Growth: ++
[10]; 18 h at 37° C.
  Enz act.: ++
  Growth: ++
[10]; 24 h at 37° C.
  Enz act.: ++
  Growth: ++
[11]; 18 h at 37° C.
  Enz act.: ++
  Growth: ++
[11]; 24 h at 37° C.
  Enz act.: ++
  Growth: ++
[12]; 18 h at 37° C.
  Enz act.: ++
  Growth: ++
[12]; 24 h at 37° C.
  Enz act.: ++
  Growth: ++

## CO/N=C(\C(=O)N[C@@H]1C(=O)N2C(C(=O)[O-])=C(C[N+]3(C)CCCC3)CS[C@H]12)c1csc(N)n1 [Cefepime, cefepime]
[1]; 18 h at 37° C.
  Enz act.: −
  Growth: −
[1]; 24 h at 37° C.
  Enz act.: −
  Growth: −
[2]; 18 h at 37° C.
  Enz act.: −
  Growth: −
[2]; 24 h at 37° C.
  Enz act.: −
  Growth: −
[3]; 18 h at 37° C.
  Enz act.: −
  Growth: −
[3]; 24 h at 37° C.
  Enz act.: −
  Growth: −
[4]; 18 h at 37° C.
  Enz act.: −
  Growth: −
[4]; 24 h at 37° C.
  Enz act.: −
  Growth: −
[5]; 18 h at 37° C.
  Enz act.: −
  Growth: −
[5]; 24 h at 37° C.
  Enz act.: −
  Growth: −
[6]; 18 h at 37° C.
  Enz act.: +
  Growth: +
[6]; 24 h at 37° C.
  Enz act.: +
  Growth: +
[7]; 18 h at 37° C.
  Enz act.: −
  Growth: −
[7]; 24 h at 37° C.
  Enz act.: −
  Growth: −
[8]; 18 h at 37° C.
  Enz act.: ++
  Growth: ++
[8]; 24 h at 37° C.
  Enz act.: ++
  Growth: ++
[9]; 18 h at 37° C.
  Enz act.: ++
  Growth: ++
[9]; 24 h at 37° C.
  Enz act.: ++
  Growth: ++
[10]; 18 h at 37° C.
  Enz act.: ++
  Growth: ++
[10]; 24 h at 37° C.
  Enz act.: ++
  Growth: ++
[11]; 18 h at 37° C.
  Enz act.: ++
  Growth: ++
[11]; 24 h at 37° C.
  Enz act.: ++
  Growth: ++
[12]; 18 h at 37° C.
  Enz act.: ++
  Growth: ++
[12]; 24 h at 37° C.
  Enz act.: ++
  Growth: ++
[13]; compared with cefpodoxime, cefamandole, cefuroxime media
  sensitivity and specificity of detection of the ESBL strains: best sensitivity and specificity
[13]; medium A: 0.25 mg/L cefepime with 300 mg/l cloxacillin
  discrimination between the ESBL-producing strains, the strains producing an HL Case or the wild-type taxon strains: good discrimination

## COCC1=C(C(=O)O)N2C(=O)[C@@H](NC(=O)/C(=N\OC)c3csc(N)n3)[C@H]2SC1 [Cefpodoxime, cefpodoxime]
[1]; 18 h at 37° C.
  Enz act.: ++
  Growth: ++
[1]; 24 h at 37° C.
  Enz act.: ++
  Growth: ++
[2]; 18 h at 37° C.
  Enz act.: ++
  Growth: ++
[2]; 24 h at 37° C.
  Enz act.: ++
  Growth: ++
[3]; 18 h at 37° C.
  Enz act.: −
  Growth: −
[3]; 24 h at 37° C.
  Enz act.: −
  Growth: −
[4]; 18 h at 37° C.
  Enz act.: −
  Growth: −
[4]; 24 h at 37° C.
  Enz act.: −
  Growth: −
[5]; 18 h at 37° C.
  Enz act.: −
  Growth: −
[5]; 24 h at 37° C.
  Enz act.: −
  Growth: −
[6]; 18 h at 37° C.
  Enz act.: +
  Growth: +
[6]; 24 h at 37° C.
  Enz act.: +
  Growth: +
[7]; 18 h at 37° C.
  Enz act.: +
  Growth: +
[7]; 24 h at 37° C.
  Enz act.: ++
  Growth: +
[8]; 18 h at 37° C.
  Enz act.: ++
  Growth: ++
[8]; 24 h at 37° C.
  Enz act.: ++
  Growth: ++
[9]; 18 h at 37° C.
  Enz act.: ++
  Growth: ++
[9]; 24 h at 37° C.
  Enz act.: ++
  Growth: ++
[10]; 18 h at 37° C.
  Enz act.: ++
  Growth: ++
[10]; 24 h at 37° C.
  Enz act.: ++
  Growth: ++
[11]; 18 h at 37° C.
  Enz act.: ++
  Growth: ++
[11]; 24 h at 37° C.
  Enz act.: ++
  Growth: ++
[12]; 18 h at 37° C.
  Enz act.: ++
  Growth: +
[12]; 24 h at 37° C.
  Enz act.: ++
  Growth: ++

## CO/N=C(\C(=O)N[C@@H]1C(=O)N2C(C(=O)O)=C(COC(N)=O)CS[C@H]12)c1ccco1 [Cefuroxime, cefuroxime]
[1]; 18 h at 37° C.
  Enz act.: ++
  Growth: ++
[1]; 24 h at 37° C.
  Enz act.: ++
  Growth: ++
[2]; 18 h at 37° C.
  Enz act.: ++
  Growth: +
[2]; 24 h at 37° C.
  Enz act.: ++
  Growth: ++
[3]; 18 h at 37° C.
  Enz act.: −
  Growth: −
[3]; 24 h at 37° C.
  Enz act.: −
  Growth: −
[4]; 18 h at 37° C.
  Enz act.: −
  Growth: −
[4]; 24 h at 37° C.
  Enz act.: −
  Growth: −
[5]; 18 h at 37° C.
  Enz act.: ++
  Growth: +
[5]; 24 h at 37° C.
  Enz act.: ++
  Growth: +
[6]; 18 h at 37° C.
  Enz act.: +
  Growth: +
[6]; 24 h at 37° C.
  Enz act.: ++
  Growth: +
[7]; 18 h at 37° C.
  Enz act.: ++
  Growth: ++
[7]; 24 h at 37° C.
  Enz act.: ++
  Growth: ++
[8]; 18 h at 37° C.
  Enz act.: ++
  Growth: ++
[8]; 24 h at 37° C.
  Enz act.: ++
  Growth: ++
[9]; 18 h at 37° C.
  Enz act.: ++
  Growth: ++
[9]; 24 h at 37° C.
  Enz act.: ++
  Growth: ++
[10]; 18 h at 37° C.
  Enz act.: ++
  Growth: ++
[10]; 24 h at 37° C.
  Enz act.: ++
  Growth: ++
[11]; 18 h at 37° C.
  Enz act.: ++
  Growth: ++
[11]; 24 h at 37° C.
  Enz act.: ++
  Growth: ++
[12]; 18 h at 37° C.
  Enz act.: ++
  Growth: ++
[12]; 24 h at 37° C.
  Enz act.: ++
  Growth: ++
